Reference: publication PMC8665362, “Identification of small-molecule allosteric modulators that act as enhancers/disrupters of rhodopsin oligomerization” (The Journal of Biological Chemistry, 2021)
Marks after values point to notes of the source that are not given here.

Tests used:
[1] = target: T1, rhodopsin (isorhodopsin) dimerization (Homo sapiens, UniProt P08100); test: rhodopsin β-gal fragment complementation assay in U2OS opsin-EA/opsin-PK cells; type: cell-based; design: expressed in transfected cells; conditions: for EC50: U2OS opsin-EA/PK cells regenerated with 9-cis-retinal, triplicates, read from Fig. 3A,D
Text: (§1) To identify small molecules that target rhodopsin dimerization, a cell-based high-throughput screening (HTS) assay was used to screen a diverse library of 50,000 compounds from Life Chemicals. The human osteosarcoma (U2OS) stable cell line was used, which expresses opsin fused with complimentary subunits of β-galactosidase (β-gal), namely, the enzyme acceptor large β-gal subunit (EA) and the enzyme donor, small subunit of β-gal (PK). Upon rhodopsin self-association in vitro, a competent β-gal was formed and chemiluminescent signal was generated in the presence of β-gal substrate (Fig. 1A). For further validation, the β-gal activity assay was used to counter-screen and rule out false positives, affecting the activity of β-gal without affecting rhodopsin (Fig. 1B) ([34]). In an orthogonal assay, rhodopsin dimerization was assessed using a bioluminescence resonance energy transfer (BRET) assay with human embryonic kidney 293 cells expressing opsin fused with Renilla luciferase and opsin fused with Venus (Fig. 1C) ([35], [36]). To form functional visual pigment, opsin-fused proteins were regenerated with 9-cis-retinal to form so-called isorhodopsin ([37]). We chose 9-cis-retinal over photoreceptor-endogenous 11-cis-retinal because of its availability and the prohibitive cost for HTS assays with the native chromophore. Rhodopsin and isorhodopsin have similar biochemical and spectral properties (see ([38])).
All 50,000 compounds were screened, using the β-gal complementation assay at a final concentration of 60 μM with a Z′ factor of 0.75 ± 0.01 and a signal-to-background (S/B) ratio of 123 ± 14.4 (Fig. 2A) ([39]). The activity scores were calculated according to the following equation: (RLU(compound)−RLU(positivecontrol))/(RLU(negativecontrol)−RLU(positivecontrol))×100.
The positive control comprised U2OS cells transfected with both opsin-EA and opsin-PK, mimicking dimer formation (with a 0% score value), and the negative control comprised U2OS cells transfected with opsin-EA only, mimicking disrupted dimer formation (with a 100% score value).
In this study, cultured U2OS opsin-EA and opsin-PK cells were diluted to 2 × 10^5 cells/ml in the culture medium containing 10% fetal bovine serum (Thermo Fisher Scientific) and 1% penicillin-streptomycin 10,000 U/ml (Thermo Fisher Scientific). Cell diluent of 20 μl/well was dispensed into a white ViewPlate-384 (PerkinElmer) using the EL406 plate dispenser (BioTek). As a control, we used U2OS opsin-EA–only expressing cells as a positive control for dimerization disruption generating a minimal luminescence signal, as previously described ([41]). The plates were cultured overnight at 37 °C in 5% CO2, and the next day, under a dim red light, cells were treated with 5 μl/well of 9-cis-retinal (Sigma-Aldrich) at 7.5 μM final concentration. Plates were covered with aluminum foil and cultured overnight at 37 °C in 5% CO2. Next, cells were treated with each of the 50,000 library compounds (Life Chemicals Inc) at a final concentration of 57.6 μM, using a JANUS automated workstation (PerkinElmer), followed by incubation overnight at 37 °C, covered with aluminum foil. The next day, cells were treated with Galacton-Star chemiluminescent substrate (23 μl/well; Thermo Fisher Scientific). The plates were covered with foil and incubated at 20 °C for 2 h, followed by luminescence reading with the EnSpire multimode plate reader (PerkinElmer). Measurements were evaluated with the lowest value being defined as −50% (dimer enhancers) and the highest value as 100% (dimer disrupters) in the compound dataset. All experiments were done under red-light conditions. Identified compounds were retested in triplicates ranging from 180 μM down to 2.4 nM concentrations.

[2] = target: T1, rhodopsin (isorhodopsin) dimerization; test: rhodopsin dimerization BRET assay in HEK293 opsin-Rluc/opsin-Venus cells; type: cell-based; design: expressed in transfected cells; host or cells: HEK293 (human embryonic kidney 293) opsin-Rluc / opsin-Venus cell lines; conditions: for EC50: HEK293 opsin-Rluc/opsin-Venus cells regenerated with 9-cis-retinal, triplicates, read from Fig. 3B,E
Text: as §1
Identified hits from the β-gal complementation assay were subjected to the previously developed BRET assay, using human embryonic kidney 293 opsin–Renilla luciferase and opsin-Venus cell lines ([37]). Cultured cells were diluted to 2 × 10^5 cells/ml in the medium containing 10% fetal bovine serum (Thermo Fisher Scientific) and 1% penicillin-streptomycin (10,000 U/ml; Thermo Fisher Scientific), and 20 μl/well of the cell diluent was dispensed into a white ViewPlate-384 (PerkinElmer). Cells were cultured overnight at 37 °C in 5% CO2, and under a dim red light, cells were treated with 9-cis-retinal at 7.5 μM final concentration. The next day, cells were treated with the identified hit compounds from the β-gal complementation assay at 180 μM down to 2.4 nM concentrations, and 1 μM final concentration of TM5 peptide ([…]-NH2; EZBiolab) serving as the control. On the following day, the culture medium was aspirated and replaced with 90 μl/well of PBS containing pivaloyloxymethyl acetoxycoelenterazine h (Dalton Research Molecules) at 600 μM concentration followed by incubation at 20 °C for 40 min ([35]). Dual luminescence readings at 480 and 530 nm were performed using a SpectraMax L plate reader with the BRET1 filter set (Molecular Devices).

bovine rhodopsin = target: T2, bovine rhodopsin (Bos taurus, UniProt P02699); test: rhodopsin Meta II decay assay (Trp265 intrinsic fluorescence); conditions: 100 μM compound; for Meta II decay rate (slope of intrinsic fluorescence over 150 s) relative to DMSO control: bleached rhodopsin, p < 0.0001
T2 construct: The washed ROS with isotonic and hypotonic buffers was used as described above; from tissue; host or cells: bovine rod outer segments (ROS)
Description: However, oligomerization of isorhodopsin could affect the chromophore release from opsin. The chromophore release can be measured sensitively by the light-induced increase in intrinsic fluorescence of the Trp^265 residue that occurs upon release of the chromophore after illumination ([43]).
The washed ROS with isotonic and hypotonic buffers was used as described above. The solubilized rhodopsin at 1.05 mg/ml in 20 mM 1,3-bis(tris(hydroxymethyl)methylamino) propane, pH 6.9, 100 mM NaCl, and 1 mM LMNG buffer was incubated for 5 min at 20 °C with 0.7 μl of 100 mM stock solutions of the nine identified hit compounds (100 μM final concentration) in DMSO and centrifuged at 1000g for an additional 5 min. Next, photobleaching was carried out with a 150-W fiber light delivered through a 480 to 520 nm band pass filter (Chroma Technology) for 10 s. Samples were subjected to fluorescence measurements acquired through 150 s in triplicate. The results were analyzed with an L55 luminescence spectrophotometer (PerkinElmer) operating at excitation and emission wavelengths of 300 nm and 335 nm, respectively.

[3] = test system: rod photoreceptors of isolated mouse retinas; test: ex vivo ERG of isolated mouse retinas (rod light responses); type: cell-based, mouse (C57BL/6J); conditions: 250 μM compound
Text: We determined the impact of compound #7 (representative disrupter of rhodopsin dimerization) and compound #1 (representative enhancer) on the sensitivity and kinetics of rod light responses, using ex vivo electroretinogram (ERG) analysis of isolated mouse retinas (Experimental procedures). This technique allows robust recordings from intact retinas and is well suited for quantitative investigation of mouse phototransduction ([48], [49], [50], [51], [52], [53]).
Ex vivo ERG recordings were conducted with isolated retinas of C57Bl/6J mice, as described ([41], [62], [63]). Mice were dark-adapted overnight and euthanized by CO2 asphyxiation, and whole retinas were dissected under dim red light. Before recordings, retinas were incubated for 5 h in Ames’ medium (Sigma-Aldrich) inside a light-tight box that was supplied with humidified 95% O2/5% CO2. For control retinas, 0.1% DMSO was added to the incubation medium, and for others, the incubation medium contained either 250 μM F2502-0030 (compound #1) or F5897-0190 (compound #7). These compounds were first dissolved in DMSO at 250 mM concentration, and 0.1% of this stock solution was added to the incubation medium (Ames’ medium). Stock solution was stored at −20 °C and used within a week. After incubation, retinas were placed on the ex vivo ERG specimen holder and perfused with Ames’ medium (saturated with 95% O2/5% CO2) at 1.5 ml/min at 35 °C. Ames’ medium was supplemented with 100 μM BaCl2 and 40 μM DL-AP4 (Tocris Bioscience) to isolate the photoreceptor component of the ERG signal. Responses were recorded to 5 ms flashes of light (630 nm) ranging from 276 to 308,534 photons μm^−2, corresponding to 1 to 1100 photons μm^−2 at 500 nm ([64]). Sensitivity of rod photoreceptors was determined in three ways: (1) sF = peak amplitude of dim flash response divided by flash energy (1 photon μm^−2); (2) SF = sF/Rmax, where Rmax is the maximal response amplitude measured at the plateau from a saturated rod response; (3) I1/2: flash energy required to elicit 50% of the Rmax determined by fitting a Naka-Rushton function to flash energy-amplitude data.

[4] = test system: individual rod photoreceptors; test: single-cell suction electrode recording from rod outer segments; type: cell-based, mouse (C57BL/6J); conditions: long incubation time during sample preparation for single-cell recording
Description: Because it is possible that reduction of Rmax by compound #1 is due to some effect(s) on the rod photoreceptor inner segment currents that are not directly related to phototransduction ([51], [52]), we conducted also single-cell suction electrode recordings from the ROS from samples that were incubated either in the control medium or in the medium containing enhancer compound #1. The results from single cell recordings were similar to those obtained using ex vivo ERG: Rmax and fractional sensitivity were decreased from 12 (±0.4) to 9 (±0.3) pA and from 3.0 (±0.5) to 1.8 (±0.1)% per photon μm^−2, respectively, by rhodopsin dimerization–enhancing hit #1 (Fig. 6, A–C). Like the ex vivo ERG recordings, light response kinetics was not affected by compound #1 in the single-cell recordings (Fig. 6D).
Suction electrode recordings from individual rod photoreceptors of dark-adapted C57BL/6J mice were conducted as described previously ([65]). Before recordings, isolated retinas were incubated in the control medium (Ames’ medium + 0.1% DMSO) or in the hit compound–containing medium (Ames’ medium +250 μM F2502-0030 (#1)) as described above for ex vivo ERG experiments. After incubation, one half of the retina was chopped with a razor blade and transferred into a chamber where it was perfused at 1 ml/min with Ames’ medium saturated with 95% O2/5% CO2 at 35 °C. Recordings were made from a single ROS, using borosilicate glass electrodes with ∼1.5-μm opening (resistance ∼2 MΩ at 35 °C). The pipette solution was Hepes buffered Ames’ medium composed of 0.88 g Ames’ powder (A1420, Sigma-Aldrich), 0.357 g Hepes (Sigma-Aldrich), and 58.44 mg NaCl in […] distilled and vacuum-filtered water. The pH was adjusted to 7.4 with NaOH. Light responses were recorded to flashes of light ranging from 8 to 700 photons μm^−2 at 500 nm. For analysis, data were low-pass filtered using an 8-pole Bessel filter with cut-off frequency at 30 Hz.

T2 sequence (P02699 whole entry): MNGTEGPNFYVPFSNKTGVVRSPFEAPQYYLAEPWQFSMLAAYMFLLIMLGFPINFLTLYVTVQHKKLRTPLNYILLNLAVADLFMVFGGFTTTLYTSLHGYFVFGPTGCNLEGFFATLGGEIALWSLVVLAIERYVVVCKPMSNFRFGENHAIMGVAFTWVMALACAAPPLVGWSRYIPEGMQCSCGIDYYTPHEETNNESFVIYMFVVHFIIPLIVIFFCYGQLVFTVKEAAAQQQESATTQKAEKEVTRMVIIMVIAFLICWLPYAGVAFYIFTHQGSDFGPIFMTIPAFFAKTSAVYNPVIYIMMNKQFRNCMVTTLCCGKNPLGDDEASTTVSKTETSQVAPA
T1 sequence (P08100 whole entry, the tested form may be a part): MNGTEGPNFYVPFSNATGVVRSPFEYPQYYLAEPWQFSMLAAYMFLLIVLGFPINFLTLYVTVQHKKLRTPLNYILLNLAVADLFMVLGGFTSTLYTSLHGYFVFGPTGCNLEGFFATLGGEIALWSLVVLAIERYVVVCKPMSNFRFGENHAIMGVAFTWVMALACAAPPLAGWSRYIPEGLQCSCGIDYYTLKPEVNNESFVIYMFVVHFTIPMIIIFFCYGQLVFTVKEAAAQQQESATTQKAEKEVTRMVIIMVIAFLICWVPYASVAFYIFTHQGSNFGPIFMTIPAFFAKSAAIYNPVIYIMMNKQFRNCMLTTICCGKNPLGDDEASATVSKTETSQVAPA

Row | EC50 [1] [µM] | EC50 [2] [µM] | Structure (SMILES) | Meta II decay rate (slope of intrinsic fluorescence over 150 s) relative to DMSO control (bovine rhodopsin) | also measured
1 | 31.3 | 5.53 | COc1ccc(S(=O)(=O)N(C(C)=O)c2cc3sc(=O)oc3c3ccccc23)cc1 [#5] |  | 
2 | 30 | 13.6 | CCOc1ccccc1-n1nnc(-c2nn3c(Cc4ccccc4)nnc3s2)c1C [#6] | statistically significant signal reduction | 
3 | 16.5 | 20.5 | NC(=O)c1oc2ccccc2c1NC(=O)c1ccc(Oc2ccccc2)cc1 [#8] | statistically significant signal reduction | 
4 | 10.5 | 17.7 | Cc1c(C(=O)N(Cc2cccnc2)c2nc3c(F)cccc3s2)cnn1-c1ccccc1 [#9] | statistically significant signal reduction | 
5 |  |  | O=C(CCCCn1c(=O)c2ccccc2n(Cc2ccccc2)c1=O)NCc1cccs1 [#4] |  | effect on dimerization in the β-gal complementation assay [1]: disrupted dimerization; effect on dimerization in the BRET assay [2]: enhanced dimerization
6 |  |  | Cc1onc(-c2ccccc2Cl)c1C(=O)Nc1cccc2ccc(-n3ccnc3)nc12 [#7] | statistically significant signal reduction | effect on kinetics of rod light responses [3]: marked deceleration of light responses; Rmax ([3]; 5 h incubation, N = 4 retinas): 550 ± 40 μV; half-saturating I1/2 from best-fitting Michaelis–Menten equation to mean normalized amplitudes ([3]; Fig. 5F): 34 photons μm^−2; SF (fractional sensitivity, sF/rmax) ([3]; N = 4): 4.0 ± 0.3 ^a %/photons∙μm^−2; sF (absolute sensitivity) ([3]; N = 4): 18 ± 6 ^a μV/photons∙μm^−2; I1/2 ([3]; from individual retinas, N = 4): 35 ± 3 ^a photons∙μm^−2; tp ([3]; time-to-peak of dim flash (1 photon μm^−2), N = 4): 910 ± 100 ^a ms; damage to photoreceptor cells [4]: caused damage to the photoreceptor cells
7 | 23.9 | 7.87 | O=C(Nc1ccc(CC(=O)N2CCC(O)CC2)cc1)c1cc(-c2ccco2)on1 [#3] | statistically significant signal reduction | light-induced increase in Trp265 intrinsic fluorescence vs DMSO-treated isorhodopsin (bovine rhodopsin): significantly quenched
8 | 1.2 | 4 | O=C(NCCc1ccsc1)c1cc(-c2ccco2)on1 [#2] |  | 
